# Assay: Acid-base titration (pK MCS)
# Assay type: physicochemical
# Conditions: methyl cellosolve (MCS) H2O 4/1, excess 0.01M HCl, titrated with 0.01N NaOH; one basic ionizable function
row,Substance,pKMCS
1,38-Decarboxy-38-hydroxymethyl of teicoplanin pseudoaglycon 2 [Example 3],6.8
2,38-Decarboxy-38-hydroxymethyl of teicoplanin pseudoaglycon 1 [Example 2],6.9

# Source: patent publication US5869449A, “38-decarboxy-38-hydroxymethyl derivatives of teiocoplanin antibiotics and a process for preparing them” (Gruppo Lepetit S.P.A., priority 1990, dated 1999)
